Calls of active or inactive are those of the source. The calls are words filed in the database; no cut-off is given here.
Key:
Liver microsomes = assay: Metabolic stability in human liver microsomes assessed as clearance measured per mg of protein; assay type: ADME, Microsome
[1] = molecular target: Voltage-gated inwardly rectifying potassium channel KCNH2 (Homo sapiens, UniProt Q12809)
physchem [2] = settings: buffer, pH 7.4
physchem [3] = assay: physchem
hERG (KCNH2) = hERG (KCNH2) (Homo sapiens, UniProt Q12809); assay: in vitro; settings: HEK293 cells that express human ERG, probe [3H]dofetilide
[4] = test system: Human immunodeficiency virus 1; settings: Bal, PM1
[5] = test system: Human immunodeficiency virus 1; assay: microbe, parasite or virus in culture; settings: Human immunodeficiency virus 1, Bal, PM1

Sequence of Voltage-gated inwardly rectifying potassium channel KCNH2 (Q12809 whole entry): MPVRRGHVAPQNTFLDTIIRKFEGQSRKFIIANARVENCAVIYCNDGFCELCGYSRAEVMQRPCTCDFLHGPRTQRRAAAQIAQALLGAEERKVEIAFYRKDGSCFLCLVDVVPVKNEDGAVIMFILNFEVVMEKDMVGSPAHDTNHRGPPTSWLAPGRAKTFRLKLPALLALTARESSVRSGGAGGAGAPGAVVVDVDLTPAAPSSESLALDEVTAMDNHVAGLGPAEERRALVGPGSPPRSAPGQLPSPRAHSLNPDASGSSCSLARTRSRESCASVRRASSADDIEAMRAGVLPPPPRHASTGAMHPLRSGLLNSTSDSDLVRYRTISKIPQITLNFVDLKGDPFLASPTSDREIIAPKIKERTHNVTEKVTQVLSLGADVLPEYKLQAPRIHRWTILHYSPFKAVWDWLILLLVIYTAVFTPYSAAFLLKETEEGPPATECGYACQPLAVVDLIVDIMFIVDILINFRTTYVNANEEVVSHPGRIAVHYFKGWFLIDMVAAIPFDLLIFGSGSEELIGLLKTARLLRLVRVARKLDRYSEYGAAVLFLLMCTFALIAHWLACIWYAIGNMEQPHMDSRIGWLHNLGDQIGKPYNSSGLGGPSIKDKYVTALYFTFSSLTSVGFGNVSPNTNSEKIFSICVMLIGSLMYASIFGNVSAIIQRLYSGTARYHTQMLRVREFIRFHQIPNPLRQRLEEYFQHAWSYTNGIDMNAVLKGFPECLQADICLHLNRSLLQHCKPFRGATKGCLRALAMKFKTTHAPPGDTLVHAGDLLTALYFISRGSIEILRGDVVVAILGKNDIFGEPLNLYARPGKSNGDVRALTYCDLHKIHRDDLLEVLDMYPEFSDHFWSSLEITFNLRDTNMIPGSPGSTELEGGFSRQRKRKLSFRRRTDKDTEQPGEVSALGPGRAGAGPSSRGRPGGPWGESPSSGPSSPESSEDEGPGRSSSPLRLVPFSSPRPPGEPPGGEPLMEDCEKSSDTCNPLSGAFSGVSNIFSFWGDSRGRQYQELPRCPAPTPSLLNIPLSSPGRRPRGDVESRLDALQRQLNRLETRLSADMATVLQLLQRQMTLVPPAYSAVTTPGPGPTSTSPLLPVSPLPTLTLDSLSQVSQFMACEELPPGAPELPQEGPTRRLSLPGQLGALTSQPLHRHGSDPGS
Sequence of hERG (KCNH2) (Q12809 whole entry): as above

SMILES | Stability (Liver microsomes) | logD (physchem [2]) | IC90 [5] | also measured
Cc1nnc(C(C)C)n1C1CCN(CC[C@H](NC(=O)C2CCC(F)(F)CC2)c2ccccc2)CC1 | < 8 µL/min | 1.7 | – | pKa (physchem [3]): 7.2; inhibition at 0.3 µM (hERG (KCNH2)): 0%; Activity [4]: inactive
Cc1nnc(C2CCN(C(C)C[C@H](NC(=O)C3CCC3)c3ccccc3)CC2)o1 (some centres undefined) | < 7 µL/min | 1.3 | – | –
Cc1noc(C2CCN(C(C)C[C@H](NC(=O)C3CCC3)c3ccccc3)CC2)n1 (some centres undefined) | 56 µL/min | 2.1 | – | –
Cc1nnc(C)n1C1CCN(C(C)C[C@H](NC(=O)C2CCC2)c2ccccc2)CC1 (some centres undefined) | < 7 µL/min | 1.2 | – | –
CC(C)c1noc(C2CCN(C(C)C[C@H](NC(=O)C3CCC3)c3ccccc3)CC2)n1 (some centres undefined) | 204 µL/min | 3.2 | – | –
CCN(C(=O)Oc1ccc(F)cc1)C1CCN(C(C)C[C@H](NC(=O)C2CCC2)c2ccccc2)CC1 (some centres undefined) | – | – | 61.4 nM | –
Cc1nnc(C(C)C)n1[C@H]1C[C@H]2CC[C@@H](C1)N2CC[C@H](NC(=O)C1CCC(F)(F)CC1)c1ccccc1 [MARAVIROC] | 22 µL/min | 2 | 0.7 nM | pKa (physchem [3]): 7.7
CC(C[C@H](NC(=O)C1CCC1)c1ccccc1)N1CCC(c2nnc(CN(C)C)o2)CC1 (some centres undefined) | < 7 µL/min | 1.1 | – | –
Cc1nnc(C(C)C)n1C1CCN(C(C)C[C@H](NC(=O)C2CCC2)c2ccccc2)CC1 (some centres undefined) | < 7 µL/min | 1.9 | – | –

Further lines, with some results ahead:

Stability (Liver microsomes) | logD (physchem [2]) | IC90 [5] | SMILES | also measured
38 µL/min | 2.4 | – | CC(C[C@H](NC(=O)C1CCC1)c1ccccc1)N1CCC(c2[nH]ncc2-c2ccncc2)CC1 (some centres undefined) | IC50 [1]: 117 nM
183 µL/min | 2.9 | – | CCN(C(=O)Cc1ccc(OC)cc1)[C@H]1C[C@H]2CC[C@@H](C1)N2CC[C@H](NC(=O)C1CCC1)c1ccccc1 | pKa (physchem [3]): 8.7
– | – | 0.236 nM | CCN(C(=O)NCc1ccc(Cl)c(Cl)c1)C1CCN(C(C)C[C@H](NC(=O)C2CCC2)c2ccccc2)CC1 (some centres undefined) | –
– | – | 0.322 nM | CCN(C(=O)OCc1ccccc1)C1CCN(C(C)C[C@H](NC(=O)C2CCC2)c2ccccc2)CC1 (some centres undefined) | –
– | – | 1630 nM | CCN(C(=O)c1ccc(F)cc1)C1CCN(C(C)C[C@H](NC(=O)C2CCC2)c2ccccc2)CC1 (some centres undefined) | –
35 µL/min | 3.5 | – | CC(C[C@H](NC(=O)C1CCC1)c1ccccc1)N1CCC(n2cc(-c3ccccc3)[nH]c2=O)CC1 (some centres undefined) | IC50 [1]: 4.7 nM

Source: ChEMBL document CHEMBL1152728, “1-Amido-1-phenyl-3-piperidinylbutanes - CCR5 antagonists for the treatment of HIV. Part 1” (Bioorg Med Chem Lett, 2009)
